# From publication PMC9029538, “Dosing Colistimethate Every 8 h Results in Higher Plasma Concentrations of Active Colistin Than Every 12-Hourly Dosing without Increase in Nephrotoxicity: A Phase 1 Pharmacokinetics Trial in Healthy Adult Volunteers” (Antibiotics, 2022)
# Legend:
# [1] = Neurotoxicity (paresthesias, ataxia, SARA scores); assay type: in vivo, healthy adult volunteers; set-up: key to SARA score: Nose–finger—right / SARA score: Nose–finger—left: 0: no tremor; 0.5: tremor with an amplitude < 2 cm (unilateral); 1: tremor with an amplitude < 2 cm (bilateral); key to SARA score: Fast alternating hand movements—right / SARA score: Fast alternating hand movements—left / SARA score: Heel–shin slide—right / SARA score: Heel–shin slide—left / SARA score: Sitting / SARA score: Speech disturbance: 0: normal; key to SARA score: Finger chase—right / SARA score: Finger chase—left: 0: normal, no dysmetria; 0.5: dysmetria, under/overshooting target < 5 cm (unilateral); 1: dysmetria, under/overshooting target < 5 cm (bilateral); key to Cumulative SARA Score / SARA score: Gait / SARA score: Stance: normal, able to stand in tandem for >10s; able to stand with feet together without sway, but not in tandem for >10s; 2: able to stand with feet together for >10s, but only with sway; conditions: for Cumulative SARA Score / SARA score: Fast alternating hand movements—left / SARA score: Fast alternating hand movements—right / SARA score: Finger chase—left / SARA score: Finger chase—right / SARA score: Gait / SARA score: Heel–shin slide—left / SARA score: Heel–shin slide—right / SARA score: Nose–finger—left / SARA score: Nose–finger—right / SARA score: Sitting / SARA score: Speech disturbance / SARA score: Stance: highest score for any visit
# Method: (§1) Safety assessments for TEAEs were conducted, including physical examinations (including neurological evaluations), […], vital signs, clinical laboratory tests, selected biomarkers for acute kidney injury (see section on kidney biomarkers), spirometry, and ECG measurements (see Supplementary Data S5 and S6 for clinical laboratory evaluations and schedule of events). If symptoms of ataxia were present, SARA (Scale for the Assessment and Rating of Ataxia, according to Schmitz-Hübsch et al.) assessment forms were completed to assess their severity.
# [2] = Treatment-emergent adverse events, safety population; assay type: in vivo, healthy adult volunteers; conditions: for Ataxia / Blood creatinine increased / Dizziness / Glycosuria / Proteinuria / Red blood cells urine / Renal and urinary disorders / White blood cells urine positive / Blood calcium decreased / Headache / Investigations / Lymphocyte count decreased / Nervous system disorders / Number of Subjects with at Least One Adverse Event / Paresthesia / Prothrombin time prolonged / Respiratory, thoracic and mediastinal disorders / Cough: TEAE, subjects n (%)
# Method: as §1
substance,measurement,setting,value
colistimethate sodium [CMS],ataxia reported,[1]; Cohort 1,no ataxia
same,Cumulative SARA Score,[1]; subject 20012078,1
same,SARA score: Fast alternating hand movements—left,[1]; subject 20012078,0
same,SARA score: Fast alternating hand movements—right,[1]; subject 20012078,0
same,SARA score: Finger chase—left,[1]; subject 20012078,0
same,SARA score: Finger chase—right,[1]; subject 20012078,0
same,SARA score: Gait,[1]; subject 20012078,1
same,SARA score: Heel–shin slide—left,[1]; subject 20012078,0
same,SARA score: Heel–shin slide—right,[1]; subject 20012078,0
same,SARA score: Nose–finger—left,[1]; subject 20012078,0
same,SARA score: Nose–finger—right,[1]; subject 20012078,0
same,SARA score: Sitting,[1]; subject 20012078,0
same,SARA score: Speech disturbance,[1]; subject 20012078,0
same,SARA score: Stance,[1]; subject 20012078,0
same,SARA score: Fast alternating hand movements—left,[1]; subject 20012079,0
same,SARA score: Fast alternating hand movements—right,[1]; subject 20012079,0
same,SARA score: Finger chase—left,[1]; subject 20012079,0.5
same,SARA score: Finger chase—right,[1]; subject 20012079,0
same,SARA score: Gait,[1]; subject 20012079,2
same,SARA score: Heel–shin slide—left,[1]; subject 20012079,0
same,SARA score: Heel–shin slide—right,[1]; subject 20012079,0
same,SARA score: Nose–finger—left,[1]; subject 20012079,0
same,SARA score: Nose–finger—right,[1]; subject 20012079,0
same,SARA score: Sitting,[1]; subject 20012079,0
same,SARA score: Speech disturbance,[1]; subject 20012079,0
same,SARA score: Stance,[1]; subject 20012079,2
same,SARA score: Fast alternating hand movements—left,[1]; subject 20012080,0
same,SARA score: Fast alternating hand movements—right,[1]; subject 20012080,0
same,SARA score: Finger chase—left,[1]; subject 20012080,0
same,SARA score: Finger chase—right,[1]; subject 20012080,0
same,SARA score: Gait,[1]; subject 20012080,3
same,SARA score: Heel–shin slide—left,[1]; subject 20012080,0
same,SARA score: Heel–shin slide—right,[1]; subject 20012080,0
same,SARA score: Nose–finger—left,[1]; subject 20012080,0.5
same,SARA score: Nose–finger—right,[1]; subject 20012080,0.5
same,SARA score: Sitting,[1]; subject 20012080,0
same,SARA score: Speech disturbance,[1]; subject 20012080,0
same,SARA score: Stance,[1]; subject 20012080,2
same,SARA score: Fast alternating hand movements—left,[1]; subject 20012081,0
same,SARA score: Fast alternating hand movements—right,[1]; subject 20012081,0
same,SARA score: Finger chase—left,[1]; subject 20012081,0
same,SARA score: Finger chase—right,[1]; subject 20012081,0.5
same,SARA score: Gait,[1]; subject 20012081,1
same,SARA score: Heel–shin slide—left,[1]; subject 20012081,0
same,SARA score: Heel–shin slide—right,[1]; subject 20012081,0
same,SARA score: Nose–finger—left,[1]; subject 20012081,0
same,SARA score: Nose–finger—right,[1]; subject 20012081,0
same,SARA score: Sitting,[1]; subject 20012081,0
same,SARA score: Speech disturbance,[1]; subject 20012081,0
same,SARA score: Stance,[1]; subject 20012081,0
same,Cumulative SARA Score,[1]; subject 20012082,2
same,SARA score: Fast alternating hand movements—left,[1]; subject 20012082,0
same,SARA score: Fast alternating hand movements—right,[1]; subject 20012082,0
same,SARA score: Finger chase—left,[1]; subject 20012082,0
same,SARA score: Finger chase—right,[1]; subject 20012082,0
same,SARA score: Gait,[1]; subject 20012082,1
same,SARA score: Heel–shin slide—left,[1]; subject 20012082,0
same,SARA score: Heel–shin slide—right,[1]; subject 20012082,0
same,SARA score: Nose–finger—left,[1]; subject 20012082,0
same,SARA score: Nose–finger—right,[1]; subject 20012082,0
same,SARA score: Sitting,[1]; subject 20012082,0
same,SARA score: Speech disturbance,[1]; subject 20012082,0
same,SARA score: Stance,[1]; subject 20012082,1
same,Ataxia,[2]; Cohort 1 (N = 9),0
same,Blood creatinine increased,[2]; Cohort 1 (N = 9),0
same,Dizziness,[2]; Cohort 1 (N = 9),0
same,Glycosuria,[2]; Cohort 1 (N = 9),0
same,Proteinuria,[2]; Cohort 1 (N = 9),1 (11.1%)
same,Red blood cells urine,[2]; Cohort 1 (N = 9),0
same,Renal and urinary disorders,[2]; Cohort 1 (N = 9),1 (11.1%)
same,White blood cells urine positive,[2]; Cohort 1 (N = 9),0
same,Blood calcium decreased,[2]; Cohort 2 (N = 10),0
same,Blood creatinine increased,[2]; Cohort 2 (N = 10),1 (10.0%)
same,Glycosuria,[2]; Cohort 2 (N = 10),0
same,Headache,[2]; Cohort 2 (N = 10),5 (50.0%)
same,Investigations,[2]; Cohort 2 (N = 10),6 (60.0%)
same,Lymphocyte count decreased,[2]; Cohort 2 (N = 10),1 (10.0%)
same,Nervous system disorders,[2]; Cohort 2 (N = 10),10 (100.0%)
same,Number of Subjects with at Least One Adverse Event,[2]; Cohort 2 (N = 10),10 (100.0%)
same,Paresthesia,[2]; Cohort 2 (N = 10),10 (100.0%)
same,Prothrombin time prolonged,[2]; Cohort 2 (N = 10),3 (30.0%)
same,Red blood cells urine,[2]; Cohort 2 (N = 10),1 (10.0%)
same,"Respiratory, thoracic and mediastinal disorders",[2]; Cohort 2 (N = 10),3 (30.0%)
same,Ataxia,[2]; Cohort 3 (N = 12),10 (83.3%)
same,Blood calcium decreased,[2]; Cohort 3 (N = 12),4 (33.3%)
same,Cough,[2]; Cohort 3 (N = 12),2 (16.7%)
same,Dizziness,[2]; Cohort 3 (N = 12),2 (16.7%)
same,Headache,[2]; Cohort 3 (N = 12),4 (33.3%)
same,Investigations,[2]; Cohort 3 (N = 12),11 (91.7%)
same,Lymphocyte count decreased,[2]; Cohort 3 (N = 12),1 (8.3%)
same,Nervous system disorders,[2]; Cohort 3 (N = 12),11 (91.7%)
same,Number of Subjects with at Least One Adverse Event,[2]; Cohort 3 (N = 12),11 (91.7%)
same,Paresthesia,[2]; Cohort 3 (N = 12),9 (75.0%)
same,Proteinuria,[2]; Cohort 3 (N = 12),7 (58.3%)
same,Prothrombin time prolonged,[2]; Cohort 3 (N = 12),1 (8.3%)
same,Renal and urinary disorders,[2]; Cohort 3 (N = 12),7 (58.3%)
same,"Respiratory, thoracic and mediastinal disorders",[2]; Cohort 3 (N = 12),2 (16.7%)
same,White blood cells urine positive,[2]; Cohort 3 (N = 12),7 (58.3%)
same,Ataxia,[2]; Overall (N = 31),17 (54.8%)
same,Blood calcium decreased,[2]; Overall (N = 31),6 (19.4%)
same,Blood creatinine increased,[2]; Overall (N = 31),5 (16.1%)
same,Cough,[2]; Overall (N = 31),6 (19.4%)
same,Dizziness,[2]; Overall (N = 31),5 (16.1%)
same,Glycosuria,[2]; Overall (N = 31),5 (16.1%)
same,Headache,[2]; Overall (N = 31),14 (45.2%)
same,Investigations,[2]; Overall (N = 31),24 (77.4%)
same,Lymphocyte count decreased,[2]; Overall (N = 31),4 (12.9%)
same,Nervous system disorders,[2]; Overall (N = 31),27 (87.1%)
same,Number of Subjects with at Least One Adverse Event,[2]; Overall (N = 31),30 (96.8%)
same,Paresthesia,[2]; Overall (N = 31),24 (77.4%)
same,Proteinuria,[2]; Overall (N = 31),10 (32.3%)
same,Prothrombin time prolonged,[2]; Overall (N = 31),7 (22.6%)
same,Red blood cells urine,[2]; Overall (N = 31),4 (12.9%)
same,Renal and urinary disorders,[2]; Overall (N = 31),10 (32.3%)
same,"Respiratory, thoracic and mediastinal disorders",[2]; Overall (N = 31),8 (25.8%)
same,White blood cells urine positive,[2]; Overall (N = 31),9 (29.0%)
same,AEs that occurred during Period 1,"[2]; Period 1 (IV), of all AEs",138/287
same,total AEs reported,[2]; overall,287
same,serious TEAE,[2]; resulted in discontinuation of the subject,one serious TEAE of acute kidney injury
same,deaths,[2]; whole study,no deaths
